In article PMC7655722 (Organic letters, 2020):
Like-named read-outs stand apart in the source and are kept apart here.

Columns and labels:
[1] = tested on: cancer stem cells (CSCs) in MDA-MB-231 cell line; conditions: MDA-MB-231 cell line ref 12; cited from earlier work
in vitro = format: cell-based; conditions: human
MCF10A = assay: cells; format: cell-based; conditions: Homo sapiens, MCF-10A, read-out: IC50, cell viability
[2] = tested on: chronic lymphocytic leukemia (CLL); conditions: chronic lymphocytic leukemia (CLL) ref 8; cited from earlier work
glioblastoma Hs683 = glioblastoma Hs683 ref 9, 10; cited from earlier work
MDA-MB-231 = assay: cells; format: cell-based; conditions: for IC50: Homo sapiens
P335 = P335 ref 6; cited from earlier work
[3] = tested on: stem-like cells with epithelial-mesenchymal transition (EMT) properties; conditions: cited from earlier work

In the case of `CC(C)=CCC[C@H](C)[C@@]1(O)CC[C@]2(C)C[C@H]3[C@H](C(=O)C[C@@]3(C)O)/C(C=O)=C\C[C@H]21` [compound 2], the “effect on CD44/CD24-positive population” value [1] is listed as “significantly reducing the CD44/CD24-positive population”.

In the case of `CC(C)=C[C@H]1C[C@H](C)[C@]2(CC[C@]3(C)C[C@H]4[C@H](C(=O)C[C@@]4(C)O)/C(C=O)=C\C[C@H]32)O1` [OpA, ophiobolin A], the “effect on CD44/CD24-positive population” value [1] is listed as “significantly reducing the CD44/CD24-positive population”, the IC50 (in vitro) is listed as ~200 nM and the IC50 (MCF10A) is listed as 198 ± 76 nM. The IC50 [2] was 1 nM, the IC50 (glioblastoma Hs683) was 620 nM and the IC50 (MDA-MB-231; MDA-MB-231, read-out: IC50, cell viability) was 69 ± 24 nM. For the same compound, the IC50 (MDA-MB-231; MDA-MB-231, read-out: cytotoxicity (IC50) as quoted in text) was ~69 nM, the “selectivity between cancer vs non-cancer cell line” value (MDA-MB-231; MDA-MB-231 vs MCF-10A) was ~ 3 fold and the IC50 (P335) was 63 nM. For the same compound, the “induction of cell death in stem-like cells with EMT properties” value [3] was “specifically induces cell death”.
